Source: article PMC11083148, “Structure–Activity Relationship Studies on Highly Functionalized Pyrazole Hydrazones and Amides as Antiproliferative and Antioxidant Agents” (International Journal of Molecular Sciences, 2024)

Assays:
Format in all cases: cell-based
NCI-H23 = assay: NCI screening, Non-Small Cell Lung Cancer; conditions: 10 µM
Experimental: (§1) In addition, 11a and 17 (representative compounds of the acylhydrazone and amide series) were selected by the National Cancer Institute (NCI, Germantown, MD, USA) and tested at a fixed concentration of 10 µM against a panel of fifty-nine different cancer cell lines, including highly metastatic tumors (Table 2).

HOP-92 = assay: NCI screening, Non-Small Cell Lung Cancer; conditions: HOP-92, Non-Small Cell Lung Cancer; 10 µM
Experimental: as §1

NCI-H226 = assay: NCI screening, Non-Small Cell Lung Cancer; conditions: 10 µM
Experimental: as §1

EKVX = assay: NCI screening, Non-Small Cell Lung Cancer; conditions: 10 µM
Experimental: as §1

A549/ATCC = assay: NCI screening, Non-Small Cell Lung Cancer; conditions: 10 µM
Experimental: as §1

NCI-H322M = assay: NCI screening, Non-Small Cell Lung Cancer; conditions: 10 µM
Experimental: as §1

HOP-62 = assay: NCI screening, Non-Small Cell Lung Cancer; conditions: HOP-62, Non-Small Cell Lung Cancer; 10 µM
Experimental: as §1

SKMEL28 = assay: MTT assay, antiproliferative activity; conditions: Homo sapiens; for Mean growth percentage at 10 µM: SK-MEL-28, 10 µM, 48h
MCF7 [1] = assay: MTT assay, antiproliferative activity; conditions: Homo sapiens; for mean growth percentage (cell growth remaining vs control) at 10 µM: 48h
HeLa = assay: MTT assay, antiproliferative activity; conditions: Homo sapiens; for activity at 10 µM: 48h, read-out: Mean Growth Percentage
SKOV3 = assay: MTT assay, antiproliferative activity; conditions: Homo sapiens; for Mean growth percentage at 10 µM: SK-OV-3, 10 µM, 48h
M14 = assay: NCI screening, Melanoma; conditions: 10 µM
Experimental: as §1

MDA-MB-435 = assay: NCI screening, Melanoma; conditions: MDA-MB-435, Melanoma; 10 µM; negative values indicate lethality
Experimental: as §1

LOX IMVI = assay: NCI screening, Melanoma; conditions: 10 µM
Experimental: as §1

SR = assay: NCI screening, Leukemia; conditions: 10 µM
Experimental: as §1

K-562 = assay: NCI screening, Leukemia; conditions: K-562, Leukemia; 10 µM
Experimental: as §1

HL-60(TB) = assay: NCI screening, Leukemia; conditions: 10 µM
Experimental: as §1

HCT-15 = assay: NCI screening, Colon Cancer; conditions: HCT-15, Colon Cancer; 10 µM
Experimental: as §1

HT29 = assay: NCI screening, Colon Cancer; conditions: 10 µM
Experimental: as §1

HCT-116 = assay: NCI screening, Colon Cancer; conditions: HCT-116, Colon Cancer; 10 µM
Experimental: as §1

SW-620 = assay: NCI screening, Colon Cancer; conditions: SW-620, Colon Cancer; 10 µM
Experimental: as §1

MDA-MB-468 = assay: NCI screening, Breast Cancer; conditions: MDA-MB-468, Breast Cancer; 10 µM; negative values indicate lethality
Experimental: as §1

MCF7 [2] = assay: NCI screening, Breast Cancer; conditions: 10 µM
Experimental: as §1

HS 578T = assay: NCI screening, Breast Cancer; conditions: 10 µM
Experimental: as §1

Structure (SMILES): COc1ccc(/C=N/NC(=O)c2c(N)nn(C)c2Nc2ccccc2)cc1 [11a, (E)-3-amino-N′-(4-methoxybenzylidene)-1-methyl-5-(phenylamino)-1H-pyrazole-4-carbohydrazide]
- Growth Percentage (%) (NCI-H23): 66.86%
- Growth Percentage (%) (HOP-92): 46.79%
- Growth Percentage (%) (NCI-H226): 51.61%
- Growth Percentage (%) (EKVX): 69.71%
- Growth Percentage (%) (A549/ATCC): 57.09%
- Growth Percentage (%) (NCI-H322M): 89.96%
- Growth Percentage (%) (HOP-62): 38.79%
- Mean growth percentage at 10 µM (SKMEL28): 49.4%
- IC50 (SKMEL28; SK-MEL-28, MTT): 9.45 ± 0.66 µM
- mean growth percentage (cell growth remaining vs control) at 10 µM (MCF7 [1]): 33.6%
- IC50 (MCF7 [1]; MTT): 6.9 ± 0.34 µM
- activity at 10 µM (HeLa): 25%
- IC50 (HeLa; MTT): 4.63 ± 0.41 µM
- Mean growth percentage at 10 µM (SKOV3): 43.6%
- IC50 (SKOV3; SK-OV-3, MTT): 6.88 ± 0.23 µM

Structure (SMILES): CCOC(=O)c1c(NC(=O)C2CC2)nn(C)c1Nc1ccccc1 [compound 17, Ethyl 3-(cyclopropanecarboxamido)-1-methyl-5-(phenylamino)-1H-pyrazole-4-carboxylate]
- Growth Percentage (%) (M14): 102.31%
- Growth Percentage (%) (MDA-MB-435): 101.76%
- Growth Percentage (%) (LOX IMVI): 102.01%
- Growth Percentage (%) (NCI-H23): 98.44%
- Growth Percentage (%) (HOP-92): 81.47%
- Growth Percentage (%) (NCI-H226): 98.86%
- Growth Percentage (%) (EKVX): 96.82%
- Growth Percentage (%) (A549/ATCC): 101.59%
- Growth Percentage (%) (NCI-H322M): 94.41%
- Growth Percentage (%) (HOP-62): 110.36%
- Mean growth percentage at 10 µM (SKMEL28): 85.9%
- mean growth percentage (cell growth remaining vs control) at 10 µM (MCF7 [1]): 92.8%
- activity at 10 µM (HeLa): 109%
- Mean growth percentage at 10 µM (SKOV3): 86.9%
- Growth Percentage (%) (SR): 94.23%
- Growth Percentage (%) (K-562): 96.41%
- Growth Percentage (%) (HL-60(TB)): 96.44%
- Growth Percentage (%) (HCT-15): 96.95%
- Growth Percentage (%) (HT29): 99.47%
- Growth Percentage (%) (HCT-116): 104.12%
- Growth Percentage (%) (SW-620): 94.82%
- Growth Percentage (%) (MDA-MB-468): 102.11%
- Growth Percentage (%) (MCF7 [2]): 92.37%
- Growth Percentage (%) (HS 578T): 96.86%
